Measured values as given in ChEMBL document CHEMBL1144334, “Synthesis and structure-activity relationships of isoxazole carboxamides as growth hormone secretagogue receptor antagonists” (Bioorg Med Chem Lett, 2005).

Assays:
[1] = molecular target: T1, Growth hormone secretagogue receptor type 1 (Homo sapiens, UniProt Q92847); test: Inhibition of ghrelin-induced increase of intracellular [Ca2+] in CHO K cell FLIPR assay; assay type: functional, cell-based
Rattus norvegicus [2] = test: Oral bioavailability in rat; assay type: functional, organism-based
[3] = molecular target: T1, Growth hormone secretagogue receptor type 1; test: Inhibition of binding to human growth hormone secretagogue receptor
Rattus norvegicus [4] = species on record: Rattus norvegicus; test: Rate of metabolism measured in rat liver microsomes for 30 min

T1 sequence (Q92847 whole entry): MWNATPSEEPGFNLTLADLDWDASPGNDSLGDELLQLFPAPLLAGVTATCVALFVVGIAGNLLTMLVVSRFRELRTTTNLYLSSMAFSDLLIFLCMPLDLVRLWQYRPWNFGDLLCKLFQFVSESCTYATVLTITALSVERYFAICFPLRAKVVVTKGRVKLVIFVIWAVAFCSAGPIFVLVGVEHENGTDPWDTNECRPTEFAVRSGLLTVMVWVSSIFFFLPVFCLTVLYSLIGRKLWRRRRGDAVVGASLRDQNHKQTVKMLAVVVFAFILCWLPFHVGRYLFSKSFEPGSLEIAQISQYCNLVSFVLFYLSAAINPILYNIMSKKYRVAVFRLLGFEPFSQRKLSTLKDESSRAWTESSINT

IC50 [1]	IC50 [3]	Structure (SMILES)	bioavailability (Rattus norvegicus [2])	Rate of metabolism (Rattus norvegicus [4])
0.039 µM	0.037 µM	CCN(CC)c1ccc(NC(=O)c2c(-c3c(Cl)cccc3Cl)noc2C)c(C)c1	1%	
0.51 µM	0.41 µM	CCCN(CC)c1ccc(NC(=O)c2c(-c3c(Cl)cccc3Cl)noc2C)cc1		
	> 10 µM	CCN(CC)c1ccc(NC(=O)c2c(-c3c(Cl)cccc3Cl)noc2C)cc1Cl		
4.7 µM	5.5 µM	CCN(C)c1ccc(NC(=O)c2c(-c3c(Cl)cccc3Cl)noc2C)cc1		
10.5 µM	1.2 µM	Cc1onc(-c2c(Cl)cccc2Cl)c1C(=O)Nc1ccccc1C(=O)NCc1ccccc1		
6.3 µM	1.3 µM	CCN(CC)c1ccc(NC(=O)c2c(-c3ccccc3-c3ccccc3)noc2C)cc1		
7.4 µM	7.5 µM	O=C(Nc1ccccc1C(=O)N1CCCCC1)c1c(-c2c(Cl)cccc2Cl)noc1CCC1OCCCO1		
0.25 µM	0.69 µM	CCN(CC)c1ccc(NC(=O)c2c(-c3ccccc3Cl)noc2C)cc1		
	> 10 µM	CCN(CC)Cc1ccc(NC(=O)c2c(-c3c(Cl)cccc3Cl)noc2C)cc1		
0.28 µM	0.34 µM	CCN(CC)c1ccc(NC(=O)c2c(-c3ccccc3Br)noc2C)cc1		
3.1 µM	9.2 µM	CCN(CCO)c1ccc(NC(=O)c2c(-c3c(Cl)cccc3Cl)noc2C)cc1		
> 10 µM	4.1 µM	CCN(CC)c1ccc(NC(=O)c2c(-c3c(Cl)cccc3Cl)noc2C)c(C(F)(F)F)c1		
7.6 µM	8.2 µM	CCN(CC)c1ccc(NC(=O)c2c(-c3ccccc3)noc2C)cc1		
0.51 µM	0.86 µM	Cc1onc(-c2c(Cl)cccc2Cl)c1C(=O)Nc1ccccc1C(=O)N1CCCCCC1		
0.01 µM	0.009 µM	CCN(CC)c1ccc(NC(=O)c2c(-c3c(Cl)cccc3Cl)noc2CCC2OCCCO2)c(C)c1		
	18.5 µM	CCN(CC)c1ccc(NC(=O)c2c(-c3cccc(Cl)c3)noc2C)cc1		
	> 10 µM	CCC(CC)c1ccc(NC(=O)c2c(-c3c(Cl)cccc3Cl)noc2C)cc1		

IC50 [1]	IC50 [3]	Structure (SMILES)	bioavailability (Rattus norvegicus [2])	Rate of metabolism (Rattus norvegicus [4])
2.9 µM	0.6 µM	CCN(CC)c1ccc(NC(=O)c2c(-c3c(Cl)cccc3Cl)noc2C)c(OC)c1		
2.3 µM	2.2 µM	Cc1onc(-c2c(Cl)cccc2Cl)c1C(=O)Nc1ccccc1C(=O)N1CCCCC1		
		CCN(CC)c1ccc(NC(=O)c2c(-c3c(Cl)cccc3Cl)noc2C)cc1	4%	800 pM/mg/min
4.5 µM	9 µM	CCN(CC)c1ccc(NC(=O)c2c(-c3c(Cl)cccc3Cl)noc2C)c(C#N)c1		
4.9 µM	0.35 µM	Cc1onc(-c2c(Cl)cccc2Cl)c1C(=O)Nc1ccccc1C(=O)NCc1ccc2c(c1)OCO2		
0.62 µM	0.55 µM	CCN(CC)c1ccc(NC(=O)c2c(-c3ccccc3[N+](=O)[O-])noc2C)cc1		
	> 10 µM	CCN(C(C)=O)c1ccc(NC(=O)c2c(-c3c(Cl)cccc3Cl)noc2C)cc1		
0.041 µM	0.37 µM	CCc1cc(N(CC)CC)ccc1NC(=O)c1c(-c2c(Cl)cccc2Cl)noc1C		
	> 10 µM	CCNc1ccc(NC(=O)c2c(-c3c(Cl)cccc3Cl)noc2C)cc1		
0.014 µM		CCN(CC)c1ccc(NC(=O)c2c(-c3c(Cl)cccc3Cl)noc2CCC2OCCCO2)cc1		
> 10 µM	> 0.1 µM	CCN(CC)c1ccc(NC(=O)c2c(-c3c(Cl)cccc3Cl)noc2C)cc1C		
6.8 µM	4 µM	CCN(CC)c1ccc(NC(=O)c2c(-c3ccccc3OC)noc2C)cc1		
	> 10 µM	Cc1onc(-c2c(Cl)cccc2Cl)c1C(=O)Nc1ccc(N2CCCCC2)cc1		
2.5 µM	1.9 µM	CCN(CC)C(=O)c1ccccc1NC(=O)c1c(-c2c(Cl)cccc2Cl)noc1C		
6 µM	7.1 µM	CCN(CC)c1ccc(NC(=O)c2c(-c3ccc(Cl)cc3)noc2C)cc1		
1.7 µM	0.98 µM	Cc1onc(-c2c(Cl)cccc2Cl)c1C(=O)Nc1ccccc1CC1c2ccccc2CCN1C (centres undefined)		
